Experimental data: patent US20150168379A1, “METHOD OF IDENTIFYING AND SCREENING DRUG CANDIDATE FOR PREVENTING AND/OR TREATING ISCHEMIC MYOCARDIAL DISEASE” (Macau University of Science and Technology, priority 2013, published 2015)
“Also recorded” adds a separate entry of the source.

Experiments:
H9C2 cell line [1] = assay: Survival rate of myocardial cells under hypoxia and reoxygenation (MTT); format: cell-based; conditions: H9C2, pre-treated one hour before hypoxia, FIG. 2/3
Method: (§1) Myocardial cell lines, H9C2 and HL-1 were respectively seeded into culture dishes. KRB (Krebs-Ringer Bicarbonate buffer) solution replaced normal DMEM medium without the addition of serum. Cells were immediately placed in adjustable hypoxia box (Billups-Rothenberg) connected with gas flowmeter (rate of flow: 25L/min), in which the partial pressure of oxygen in the box was made to decrease from 20 kPa to 0 kPa within one minute. Hypoxia box was placed in a regular incubator for different incubation periods to create hypoxia conditions. […]
Seven components of protopanaxatriol-type ginsenosides, namely Re, Rf, Rg1, 20(S)-Rg2, 20(R)-Rg2, 20(S)-Rh1 and 20(R)-Rh1, were used to pre-treat myocardial cells. […] The effects of each component on survival, mitochondrial respiration, morphology, and mitochondrial function and movement of myocardial cells were analyzed, and the results thereof were used in candidate agent selection. […]
Optical density (OD) of cells was measured at wavelength of 570 nm by multiple-well plate spectrophotometer. Survival rate of the cells incubated under normal condition was set as 100%, and the survival rate of the blank control group was measured simultaneously as baseline for background subtraction. […]

H9C2 cell line [2] = assay: Apoptosis rate of myocardial cells under hypoxia and reoxygenation by flow cytometry; format: cell-based; conditions: 3-hour hypoxia and 3-hour reoxygenation
Method: as §1
(§2) Seven components of protopanaxatriol-type ginsenosides, namely Re, Rf, Rg1, 20(S)-Rg2, 20(R)-Rg2, 20(S)-Rh1 and 20(R)-Rh1, were used to pre-treat myocardial cells. […] The effects of each component on survival, mitochondrial respiration, morphology, and mitochondrial function and movement of myocardial cells were analyzed, and the results thereof were used in candidate agent selection.
(§3) Membrane potential of mitochondria, apoptosis rate, ROS release and cell cytotoxicity of myocardial cells were analyzed by flow cytometry. […] Fluorescence intensity of cells were analyzed by flow cytometry (each sample contains more than 10,000 cells). Cell fluorescence image was analyzed with fluorescence intensity of Rh123 as x-axis and fluorescence intensity of PI as y-axis. […]

H9C2 cell line [3] = assay: Cell cytotoxicity of myocardial cells under hypoxia and reoxygenation by flow cytometry; format: cell-based; conditions: pretreated, FIG. 5
Method: as §1, §2, §3

H9C2 cell line [4] = assay: Mitochondrial membrane potential changes by flow cytometer (JC-1); format: cell-based
Method: Myocardial cell lines, H9C2 and HL-1 were respectively seeded into culture dishes. KRB (Krebs-Ringer Bicarbonate buffer) solution replaced normal DMEM medium without the addition of serum. Cells were immediately placed in adjustable hypoxia box (Billups-Rothenberg) connected with gas flowmeter (rate of flow: 25L/min), in which the partial pressure of oxygen in the box was made to decrease from 20 kPa to 0 kPa within one minute. Hypoxia box was placed in a regular incubator for different incubation periods to create hypoxia conditions. Hypoxia box was then opened and the medium was replaced with normal medium containing serum, followed by normal incubation at 37° C. for the time periods corresponding to those in the hypoxia conditions in order to create re-oxygenation conditions.
Seven components of protopanaxatriol-type ginsenosides, namely Re, Rf, Rg1, 20(S)-Rg2, 20(R)-Rg2, 20(S)-Rh1 and 20(R)-Rh1, were used to pre-treat myocardial cells. Each component was dissolved with normal medium and DMSO as co-solvent and used to pre-treat cells one hour before hypoxia. Subsequently, medium was replaced with hypoxia medium. The effects of each component on survival, mitochondrial respiration, morphology, and mitochondrial function and movement of myocardial cells were analyzed, and the results thereof were used in candidate agent selection.
Membrane potential of mitochondria, apoptosis rate, ROS release and cell cytotoxicity of myocardial cells were analyzed by flow cytometry. Upon pre-treatment of cells in different groups with Rg1, Sil (Sildenafil, the positive control drug), DOX (Doxorubicin, a cardiac toxic chemical which can induce H/R damage in myocardial cells) or FCCP (Carbonyl cyanide 4-(trifluoromethoxy) phenylhydrazone), the cells were then treated with hypoxia and reoxygenation conditions, in which the duration of each condition was 3 hours. 1 ml PBS buffer was added into culture dish with mixing. […] Fluorescence intensity of cells were analyzed by flow cytometry (each sample contains more than 10,000 cells). […]

H9C2 cell line [5] = assay: ROS release (DCFDA, flow cytometer); format: cell-based
Method: Cells were harvested and a single cell suspension was produced by gently pipetting up and down suspension cells or by fully detaching adherent cells. Cells in culture media were stained with 20 μM DCFDA and incubated for 30 minutes at 37° C. After staining, cells were treated with Rg1, DOX or Sil. Cells were gently pipetted to produce single cell suspension. Cells were then analyzed by flow cytometer in which forward and side scatter gates were established to exclude debris and cellular aggregates from the analysis. DCF was excited by the 488 nm laser and detected at 535 nm (typically FL1). 10,000 cells were analyzed per experimental condition. The whole study was repeated 3 times.

[6] = system: bal-2, procaspase-3, procaspase-9, Akt, and Erk in myocardial cells; assay: Expression levels of proteins of the mitochondrial-induced apoptosis pathway by western blotting; format: cell-based; conditions: 100 μM
Mitofusin 2 (Mfn2) = molecular target: T1, Mitofusin 2 (Mfn2) (Mus musculus, UniProt Q80U63); assay: Binding with mitofusin-2 in myocardial cells under hypoxia and reoxygenation (western blotting); conditions: FIG. 9
T1 construct: endogenous in cells; host or cells: myocardial cells under hypoxia and reoxygenation (method text: total protein from mouse myocardial infarction tissue)
T1 sequence (Q80U63 1-757): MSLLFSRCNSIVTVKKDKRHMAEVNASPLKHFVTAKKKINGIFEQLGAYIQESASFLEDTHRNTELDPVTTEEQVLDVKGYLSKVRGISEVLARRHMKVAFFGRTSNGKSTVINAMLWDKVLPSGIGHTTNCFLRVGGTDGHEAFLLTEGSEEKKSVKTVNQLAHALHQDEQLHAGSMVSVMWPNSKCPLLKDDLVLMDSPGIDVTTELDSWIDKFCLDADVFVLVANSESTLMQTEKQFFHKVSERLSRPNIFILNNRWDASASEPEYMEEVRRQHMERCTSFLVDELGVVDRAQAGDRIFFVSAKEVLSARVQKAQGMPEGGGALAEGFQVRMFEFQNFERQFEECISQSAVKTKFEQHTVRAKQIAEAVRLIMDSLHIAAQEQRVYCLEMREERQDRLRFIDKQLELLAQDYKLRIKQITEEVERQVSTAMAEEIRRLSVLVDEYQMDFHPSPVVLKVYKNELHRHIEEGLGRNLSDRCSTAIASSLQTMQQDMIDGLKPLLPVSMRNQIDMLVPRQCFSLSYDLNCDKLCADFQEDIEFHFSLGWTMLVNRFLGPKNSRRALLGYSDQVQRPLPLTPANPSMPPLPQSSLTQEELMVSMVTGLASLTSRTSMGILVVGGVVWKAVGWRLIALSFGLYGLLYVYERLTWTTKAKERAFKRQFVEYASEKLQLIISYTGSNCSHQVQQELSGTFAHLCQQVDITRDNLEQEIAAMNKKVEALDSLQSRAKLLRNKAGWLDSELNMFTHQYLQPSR

[7] = 100 μM, compared with the control group
[8] = 200 μM, compared with the control group

In the case of `CC(C)=CCC[C@](C)(O[C@@H]1O[C@H](CO)[C@@H](O)[C@H](O)[C@H]1O)[C@H]1CC[C@]2(C)[C@@H]1[C@H](O)C[C@@H]1[C@@]3(C)CC[C@H](O)C(C)(C)[C@@H]3[C@@H](O[C@@H]3O[C@H](CO)[C@@H](O)[C@H](O)[C@H]3O)C[C@]12C` [Rg1], the “Survival rate of myocardial cells” value (H9C2 cell line [1]) is reported as “capable of increasing survival rate”, the “Apoptosis rate of myocardial cells” value (H9C2 cell line [2]; [7]) is reported as “significantly inhibit apoptosis” and the “Apoptosis rate of myocardial cells” value (H9C2 cell line [2]; 200 μM) is reported as “can decrease apoptosis rate; also recorded: significantly inhibit apoptosis”. For the same molecule, the “Cytotoxicity of myocardial cells” value (H9C2 cell line [3]) was “can decrease the cytotoxicity”, the “Mitochondrial membrane potential changes” value (H9C2 cell line [4]; [7]) was “significantly reduce the decrease of mitochondrial membrane potential changes” and the “Mitochondrial membrane potential changes” value (H9C2 cell line [4]; [8]) was “significantly reduce the decrease of mitochondrial membrane potential changes”. For the same molecule, the “Mitochondrial membrane potential changes” value (H9C2 cell line [4]; JC-1, hypoxia and reoxygenation, concentration not given, FIG. 6) was “can inhibit the decrease of mitochondrial membrane potential changes”, the ROS release (H9C2 cell line [5]; [7]) was “significantly reduce the release of ROS” and the ROS release (H9C2 cell line [5]; [8]) was “significantly reduce the release of ROS”. The ROS release (H9C2 cell line [5]; concentration not given, FIG. 7) was “can decrease the release of ROS”, the “Protection for myocardial cells induced by hypoxia and reoxygenation” value [6] was “significant protection” and the “Binding with Mitofusin 2 (Mfn2) in mitochondria” value (Mitofusin 2 (Mfn2)) was “binding with Mitofusin 2 (Mfn2)”.
